Source: PubChem BioAssay (NCI)
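Each compound was tested at five concentrations against cells in 96-well plates for 48 hours. At the GI50, growth is halved. Definition used: TGI = concentration required for complete inhibition of growth.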

Experiments:
Assay in all cases: DTP human tumour cell line panel, 48 h
[1] = system: 786-0 renal
[2] = system: A498 renal
[3] = system: ACHN renal
[4] = system: CAKI-1 renal
[5] = system: EKVX NSCLC
[6] = system: HCC-2998 colon
[7] = system: HL-60(TB) leukemia
[8] = system: IGROV1 ovarian
[9] = system: KM12 colon
[10] = system: M14 melanoma
[11] = system: OVCAR-4 ovarian
[12] = system: RXF 393 renal
[13] = system: SK-MEL-2 melanoma
[14] = system: TK-10 renal
[15] = system: U251 CNS
[16] = system: UACC-257 melanoma

Structure (SMILES) | TGI [1] [µM] | TGI [2] [µM] | TGI [3] [µM] | TGI [4] [µM] | TGI [5] [µM] | TGI [6] [µM] | TGI [7] [µM] | TGI [8] [µM] | TGI [9] [µM] | TGI [10] [µM] | TGI [11] [µM] | TGI [12] [µM] | TGI [13] [µM] | TGI [14] [µM] | TGI [15] [µM] | TGI [16] [µM] | GI50 [2] [µM] | GI50 [4] [µM] | GI50 [6] [µM]
Brc1ccc2[nH]cc([C@@H]3CN[C@@H](c4c[nH]c5ccc(Br)cc45)CN3)c2c1 | 14.3 | 28.7 | 9.59 | 21.9 | 20.3 | 11.6 | 4.24 | 16.6 | 7.06 | 15 | 17.7 | 24.5 | 27.8 | 16.4 | 11.2 | 23.7 | – | – | –
NCCSC1(O)C(=O)c2ccccc2-c2ccccc21 (stereo unspecified) | 3.46 | 3.11 | 2.23 | 3.05 | 3.11 | 3.56 | 2.55 | 3.73 | 3.33 | 4.25 | 0.556 | 3.01 | 3.47 | 3.26 | 2.16 | 2.09 | 1.71 | 1.63 | 2.01
CCOC(=O)C(CC(C)C)NC(=O)C(N)Cc1ccc(N(CCCl)CCCl)cc1 (stereo unspecified) | 6.81 | 30.9 | 1.81 | 15.3 | 37.5 | 20 | 2.51 | 31.6 | 20.1 | 11.7 | 3.1 | 5.12 | 11.8 | 25.3 | 22.4 | 26.9 | – | – | –
COCN1C(=O)[C@@H]2CCCN2C(=O)c2ccc(Cl)cc21 | > 100 | > 100 | > 100 | > 100 | > 100 | > 100 | > 100 | > 100 | > 100 | > 100 | > 100 | > 100 | > 100 | > 100 | > 100 | > 100 | – | – | –
[N-]=[N+]=NCC(=O)c1c[nH]c(=O)[nH]c1=O | > 100 | > 100 | > 100 | > 100 | > 100 | > 100 | > 100 | > 100 | > 100 | > 100 | > 100 | > 100 | > 100 | > 100 | > 100 | > 100 | – | – | –
c1ccc(C2C3=C(c4ccccc4CC3)N3c4cc5nc6ccccc6nc5cc4NC34CCCCC24)cc1 (stereo unspecified) | > 10 | > 10 | > 10 | > 10 | > 10 | > 10 | > 6.29 | > 10 | > 10 | > 10 | > 10 | > 10 | > 10 | > 10 | > 10 | > 10 | – | – | –
CCC1CN2CCc3cc(OC)c(OC)cc3C2CC1CC1c2cc(OC)c(OC)cc2CCN1C(=O)C(Cc1c[nH]c2ccccc12)NC(=O)OC(C)(C)C (stereo unspecified) | 6.74 | 17.8 | 10.4 | 16.7 | 10 | 5.24 | 3.8 | 4.25 | 11 | 3.29 | 3.63 | 7.3 | 7.13 | 16 | 6.29 | 8.53 | – | – | –
N[C@@H]1c2c(Br)sc(Br)c2C(=O)[C@H]1Br | 63.5 | > 69.9 | 43.8 | 66.4 | > 88 | > 76.1 | > 24.8 | 45.9 | > 61.5 | 50.9 | 89.5 | 53.6 | > 100 | > 100 | 60.1 | > 75.3 | – | – | –
